No end group written: not given here.
What was measured:
Format in all cases: cell-based
[1] = tested on: Human hair follicle dermal papilla cells; experiment: DPC proliferation assay (MTT); conditions: serum-free medium, incubation for 3 days, absorbance 550 nm
Method: Human hair follicle dermal papilla cells were seeded at a density of 2×10^3 cells/well on 96-well plates, followed by incubation overnight. After changing into serum-free medium, the cells were treated with the peptides, followed by incubation for 3 days, and then the wells were treated with 4 mg/ml MTT solution, followed by reaction for 4 hours. The resulting formazan was solubilized with DNSO, and then the absorbance was measured at 550 nm using a microplate reader.

β-catenin = experiment: β-Catenin activity test (western blotting, nuclear and cytoplasmic proteins); conditions: human hair follicle dermal papilla cells, 15 and 30 minutes
Method: (§1) Human hair follicle dermal papilla cells were seeded at a density of 4×10^5 cells/well on 6-well plates, followed by incubation overnight. After changing into serum-free medium, the cells were treated with the peptides, followed by incubation for 15 and 30 minutes, and then the wells were harvested to isolate nuclear and cytoplasmic proteins. Western blotting was performed using β-catenin (Santa Cruz Biotechnology, USA) to compare β-catenin expression patterns.

VEGF = VEGF RT-PCR; conditions: human hair follicle dermal papilla cells, 24 hours
Method: (§2) Human hair follicle dermal papilla cells were seeded at a density of 4×10^5 cells/well on 6-well plate, followed by incubation overnight. After changing into serum-free medium, the cells were treated with the peptides, followed by incubation for 24 hours, and then the wells were harvested to isolate RNA. After RNA quantification, cDNA synthesis was conducted using the cDNA synthesis kit (Intron, Korea), followed by PCR using PCR premix (Intron, Korea) and respective KGF and VEGF primers, and then electrophoresis was performed on 5% agarose gel to compare the mRNA expression levels of the growth factors in sample treatment conditions.

ERK = experiment: p-ERK western blotting; conditions: human hair follicle dermal papilla cells, 15 and 30 minutes
Method: as §1, with “6-well plate,” for “6-well plates,”, “to prepare cell lysate.” for “to isolate nuclear and cytoplasmic proteins.”, “using PI3K antibodies” for “using β-catenin”, “USA) and phospho-ERK antibody (Cell Signaling Technology, USA)” for “USA)”, “compare protein” for “compare β-catenin”

MSX2 = MSX2 RT-PCR; conditions: human hair follicle dermal papilla cells, 24 hours
Method: as §2, with “MSX2” for “respective KGF and VEGF”, “level” for “levels”, “factor” for “factors”

TGF-β1 = TGF-β1 RT-PCR; conditions: human hair follicle dermal papilla cells, 24 hours
Method: as §2, with “Korea) and TGF-β1 primers, and” for “Korea) and respective KGF and VEGF primers, and”, “factors in respective sample treatment” for “factors in sample treatment”

Bcl-2 = Bcl-2 western blotting; conditions: human hair follicle dermal papilla cells, 24 hours
Method: (§3) Human hair follicle dermal papilla cells were seeded at a density of 4×10^5 cells/well on 6-well plate, followed by incubation overnight. After changing into serum-free medium, the cells were treated with the peptides, followed by incubation for 24 hours, and then the wells were harvested to prepare cell lysate. Western blotting was performed using Bcl-2 and Bax antibodies (Santa Cruz Biotechnology, USA) to compare protein expression patterns.

Bax = Bax western blotting; conditions: human hair follicle dermal papilla cells, 24 hours
Method: as §3

Ha3-II = Ha3-II RT-PCR; conditions: human hair follicle dermal papilla cells, 24 hours
Method: (§4) Human hair follicle dermal papilla cells were seeded at a density of 5×10^5 cells/well on 6-well plates, followed by incubation overnight. After changing into serum-free medium, the cells were treated with the peptides, followed by incubation for 24 hours, and then the wells were harvested to isolate RNA. After RNA quantification, cDNA synthesis was conducted using the cDNA synthesis kit (Intron, Korea), followed by PCR using PCR premix (Intron, Korea) and Ha3-II and keratin-14 primers, and then electrophoresis was performed on 5% agarose gel to compare the mRNA expression levels of the growth factors in respective sample treatment conditions.

keratin-14 = experiment: Keratin-14 RT-PCR; conditions: human hair follicle dermal papilla cells, 24 hours
Method: as §4

DKK-1 [2] = experiment: DKK-1 RT-PCR; conditions: human hair follicle dermal papilla cells, DKK-1 increased by DHT, 24 hours
Method: as §4, with “DKK-1” for “Ha3-II and keratin-14”

DKK-1 [3] = experiment: DKK-1 western blotting; conditions: human hair follicle dermal papilla cells, DKK-1 increased by DHT, 24 hours
Method: as §3, with “DKK-1” for “Bcl-2 and Bax”

[4] = tested on: melanocytes (B16F10 cell line); experiment: Melanin measurement assay; conditions: 72 hours, absorbance 490 nm
Method: After melanocytes (B16F10 cell line) in 6-well plates were cultured in an incubator at 37° C. for 24 hours, the medium of each plate was removed and exchanged with a fresh medium, followed by treatment with the present peptide with different concentrations. After the incubation for 72 hours, the culture medium was removed, and the cells were taken off and then transferred into 1.5-ml tubes, followed by centrifugation at 13,000 rpm for 3 minutes. The supernatant was removed, and cell pellets were collected to observe melanin. Then, 150 μl of 2 M NaOH was added to the cell pellets to lyse intracellular melanin at 60° C. for 30 minutes. Then, 100 μl of the supernatant obtained from the lysis was added into each well of 96-well plates, and the absorbance was measured at 490 nm.

tyrosinase [5] = experiment: Tyrosinase activity assay; conditions: B16F10 cells, 72 hours, L-dopa, absorbance 475 nm
Method: Melanoma cell line (B16F10) cells were cultured in 6-well culture plates for 24 hours, and treated with a peptide with difference concentrations, followed by culture for 72 hours. The 6-well culture plates were loaded on ice and washed with cool PBS, and then 300 μl of 0.1 M sodium phosphate buffer (pH 6.8 lysis buffer) containing 1% Triton X-100 was added. The cells were collected in 1.5-mL tubes, and then cell membranes were disrupted by repeating five times rapid-freezing at […] and thawing. After centrifugation at 13,000 rpm for 20 minutes, the supernatant was collected in other 1.5-mL tubes, and the protein of the samples was quantified. The samples were diluted to have the same protein concentration and then dispensed in each three wells in a 96-well culture plate, and then 20 μl of 10 mM L-dopa was added, followed by incubation at 37° C. for 1 hour.

MITF [6] = experiment: Melanogenesis-related gene RT-PCR: MITF; conditions: B16F10 cell line, 72 hours
Method: (§5) Melanocytes (B16F10 cell line) were incubated on 6-well culture plates in an incubator for 24 hours, and were treated with the peptides of the present invention with different concentrations. After RNA was extracted from the cells incubated for 72 hours, cDNA was prepared. PCR was performed by using respective primers specific to MITF and tyrosinase, which are factors involved in melanogenesis, and the expression changes of the respective genes were observed.

tyrosinase [7] = experiment: Melanogenesis-related gene RT-PCR: tyrosinase; conditions: B16F10 cell line, 72 hours
Method: as §5

TRP1 = experiment: Melanogenesis-related gene RT-PCR: TRP1; conditions: B16F10 cell line, 72 hours, FIG. 13b
MITF [8] = experiment: Melanogenesis-related protein western blotting: MITF; conditions: B16F10 cell line, 72 hours
Method: (§6) Melanocytes (B16F10 cell line) were incubated on 6-well culture plates for 24 hours, and were treated with the peptides of the present invention with different concentrations. After 72-hour incubation, the cells were lysed, and the cells were subjected to western blotting using specific antibodies (two types, both from Santa Cruz Biotechnology, USA) to investigate the expression of MITF and tyrosinase, which are factors involved in melanogenesis.

tyrosinase [9] = experiment: Melanogenesis-related protein western blotting: tyrosinase; conditions: B16F10 cell line, 72 hours
Method: as §6

KGF = KGF RT-PCR; conditions: human hair follicle dermal papilla cells, 24 hours
Method: as §2

PI3K = PI3K western blotting; conditions: human hair follicle dermal papilla cells, 15 and 30 minutes
Method: as §3, with “15 and 30 minutes,” for “24 hours,”, “PI3K” for “Bcl-2 and Bax”, “Biotechnology, USA) and phospho-ERK antibody (Cell Signaling Technology,” for “Biotechnology,”

CREB = experiment: Melanogenesis-related protein activity assay: CREB phosphorylation (western blotting); conditions: B16F10 cell line, 72 hours
Method: Melanocytes (B16F10 cell line) were incubated on 6-well culture plates in an incubator for 24 hours, and were treated with the peptide of the present invention with different concentrations. After 72-hour incubation, the cells were lysed, and the cells were subjected to western blotting using specific antibodies (Cell Signaling Technology, USA) to investigate the phosphorylation level of CREB, which is a signaling substance involved in melanogenesis.

Row | tyrosinase activity (tyrosinase [5]) | mRNA expression of tyrosinase enzyme (tyrosinase [7]) | Sequence | growth of human hair follicle dermal papilla cells [1] | activity of β-catenin (β-catenin) | phosphorylation level of ERK (ERK) | expression of TGF-β1 (mRNA) (TGF-β1) | expression of the anti-apoptotic protein Bcl-2 (Bcl-2) | expression of the apoptosis-related protein Bax (Bax) | mRNA expression of keratin-14 (keratin-14) | mRNA expression of DKK-1 (DKK-1 [2]) | protein expression of DKK-1 (DKK-1 [3]) | melanogenesis [4] | mRNA expression of MITF transcription factor (MITF [6]) | protein expression of MITF transcription factor (MITF [8]) | protein expression of tyrosinase enzyme (tyrosinase [9]) | also measured
1 | increased | increased | WKWRSADTL [SEQ ID NO: 1] | stimulated in a dose-dependent manner | increased | increased | inhibited | increased | decreased | increased | decreased | decreased | increased | increased | increased | increased | expression of VEGF (mRNA) (VEGF): increased; expression of MSX2 (mRNA) (MSX2): increased; mRNA expression of Ha3-II (Ha3-II): increased; mRNA expression of TRP1 (TRP1): increases
2 | increased | increased | KWKRSADTL [SEQ ID NO: 2] | stimulated in a dose-dependent manner | increased | increase | inhibited | increased | decreased | increased | decreased | decreased | increased | increased | increases | increases | expression of KGF (mRNA) (KGF): increased; expression of PI3K (PI3K): increase; phosphorylation level of CREB (CREB): increased

Source: patent US10508140B2, “Peptide having hair growth-promoting activity and/or melanin generation-promoting activity, and use thereof” (CAREGEN CO., LTD., priority 2016, dated 2019)
